According to patent publication US11890288B2, “Sulfonamide or sulfinamide compound having effect of inducing BRD4 protein degradation and pharmaceutical use thereof” (MITSUBISHI TANABE PHARMA CORPORATION, priority 2020, dated 2024):

Legend:
[1] = test system: human prostate cancer LNCaP cells; assay: Cytotoxic action on LNCaP cells (WST-8, 96 hr); type: cell-based; conditions: 96 hr culture
Description: The cytotoxic action of the compound of the present invention against human cancer cells was evaluated in vitro. In this experiment, (+)-JQ1 (Nature volume 468, pages 1067-1073 (23 Dec. 2010)) known to have an inhibitory activity on the binding of BRD4 protein and a ligand therefor was used as a positive control drug. Respective cells were suspended in 10% FBS/RPMI1640, seeded in a 96 well plate and cultured at 5% CO2, 37° C. overnight. A test compound dissolved in DMSO was diluted with 10% FBS/RPMI1640 and added and the cells were further cultured for 96 hr. After culturing, the viable cell number was measured using a cell number measurement WST-8 kit (Kishida Chemical Co., Ltd.). As a control, the measurement was performed under conditions free of the test compound. The cytotoxic activity of the compound of the present invention against human prostate cancer LNCaP cells is shown in IC50 value in Table 1. The IC50 value is a concentration of the compound showing 50% cell survival rate when the cell survival rate thereof under compound untreated condition is 100%. It was calculated from the straight line connecting the cell survival rate at two points enclosing the 50% cell survival rate and the compound concentration. In addition, the cytotoxic activity against respective cancer cells of human acute myeloid leukemia MV-4-11 cell, human chronic myeloid leukemia K562 cell, human multiple myeloma MM.1S cell, human diffuse large B-cell lymphoma SU-DHL-6 cell, human T-cell leukemia Jurkat cells, human Burkitt lymphoma Raji cell, human castration-resistant prostate cancer PC-3 cell, human AR-V7 positive castration-resistant prostate cancer 22Rv1 cell, human ovarian cancer A2780 cell, human cisplatin-resistant ovarian cancer SK-OV-03 cell, human bladder cancer 5637 cell, human breast cancer ZR-75-1 cell, human triple negative breast cancer MDA-MB-231 cell, human uterus cervix cancer HeLa cell, human uterine sarcoma MES-SA cell, human stomach cancer SNU-16 cell, human non-small cell lung cancer NCI-H2126 cell, human EGFRT790M mutation-positive non-small cell lung cancer NCI-H1975 cell, human small cell lung cancer NCI-H82 cell, human large cell lung cancer NCI-H460 cell, human colon cancer HCT116 cell, human glioma U-87 MG cell, human pancreatic cancer BxPC-3 cell, human liver cancer HLF cell, human bile duct cancer HuCCT1 cell, human renal cell cancer 786-O cell, and human fibrosarcoma HT1080 cell is shown in IC50 value in Table 2.

[2] = biological target: BRD4 protein (Homo sapiens (Human), UniProt O60885); assay: BRD4 protein degradation inducing action in LNCaP cells (immunofluorescence, 6 hr); type: cell-based; conditions: anti-BRD4 fluorescence intensity
Description: The degradation inducing action of the compound of the present invention on BRD4 proteins in cancer cells was evaluated in vitro using human prostate cancer LNCaP cells. LNCaP cells were suspended in 10% FBS/RPMI1640, seeded in a 96 well Cell carrier plate (Perkin Elmer) and cultured at 5% CO2, 37° C. overnight. A test compound dissolved in DMSO was diluted with 10% FBS/RPMI1640 and added and the cells were further cultured for 6 hr. After culturing, the cells were immobilized with 4% para-formaldehyde/PBS and further subjected to a permeation treatment with 0.25% Triton X-100/PBS. Thereafter, the cells were blocked with 10% BSA/PBS, Anti-BRD4 (Sigma-Aldrich) solution was added and the cells were incubated at 4° C. overnight. Furthermore, Goat anti-Rabbit IgG(H+L) Cross-Adsorbed Secondary Antibody, Alexa Fluor 546 (Thermo Fisher Scientific) solution, 0.5 μg/mL Hoechst 33342 (Sigma-Aldrich), and 14 μM Acti-Stain 555 Fluorescent Phalloidin (Cytoskeleton) were added. After incubation for 1 hr, BRD4 protein amount was measured by Operetta (Perkin Elmer) as fluorescence intensity (excitation: 560 nm, emission: 572 nm). The BRD4 protein degradation inducing activity of the compound of the present invention in LNCaP cells is shown in DC50 value in Table 3. The DC50 value is a concentration of the compound showing 50% fluorescence intensity when the fluorescence intensity thereof under compound untreated condition is 100%. It was calculated from the straight line connecting the fluorescence intensity at two points enclosing the 50% fluorescence intensity and the compound concentration.

Row | SMILES | DC50 [2] | IC50 [1]
1 | Cc1sc2c(c1C)C(c1ccc(-c3ccc(C(=O)NCc4ccc(S(=O)(=O)Nc5ccc(C)c6c(C#N)c[nH]c56)cc4)cc3)cc1)=N[C@@H](CC(=O)NCCO)c1nnc(C)n1-2 [Example 37, N-({4-[(3-cyano-4-methyl-1H-indol-7-yl)sulfamoyl]phenyl}methyl)-4′-[(6S)-6-{2-[(2-hydroxyethyl)amino]-2-oxoethyl}-2,3,9-trimethyl-6H-thieno[3,2-f][1,2,4]triazolo[4,3-a][1,4]diazepin-4-yl][1,1′-biphenyl]-4-carboxamide] | 1.4 nM | 3 nM
2 | Cc1sc2c(c1C)C(c1ccc(-c3ccc(C(=O)NCc4ccc(S(=O)(=O)Nc5ccc(C)c6c(C#N)c[nH]c56)cc4)cc3)cc1)=N[C@@H](CC(=O)N(C)C)c1nnc(C)n1-2 [Example 38, N-({4-[(3-cyano-4-methyl-1H-indol-7-yl)sulfamoyl]phenyl}methyl)-4′-{(6S)-6-[2-(dimethylamino)-2-oxoethyl]-2,3,9-trimethyl-6H-thieno[3,2-f][1,2,4]triazolo[4,3-a][1,4]diazepin-4-yl}[1,1′-biphenyl]-4-carboxamide] | 5.6 nM | 5.8 nM
3 | COC(=O)C[C@@H]1N=C(c2ccc(-c3ccc(C(=O)NCCc4ccc(S(=O)(=O)Nc5ccc(C)c6c(C#N)c[nH]c56)cc4)c(Cl)c3)cc2)c2c(sc(C)c2C)-n2c(C)nnc21 [Example 41, methyl [(6S)-4-{3′-chloro-4′-[(2-{4-[(3-cyano-4-methyl-1H-indol-7-yl)sulfamoyl]phenyl}ethyl)carbamoyl][1,1′-biphenyl]-4-yl}-2,3,9-trimethyl-6H-thieno[3,2-f][1,2,4]triazolo[4,3-a][1,4]diazepin-6-yl]acetate] | 0.41 nM | 1.1 nM
4 | COC(=O)C[C@@H]1N=C(c2ccc(-c3ccc(C(=O)NCCc4ccc(S(=O)(=O)Nc5ccc(C)c6c(C#N)c[nH]c56)cc4)cc3Cl)cc2)c2c(sc(C)c2C)-n2c(C)nnc21 [Example 48, methyl [(6S)-4-{2′-chloro-4′-[(2-{4-[(3-cyano-4-methyl-1H-indol-7-yl)sulfamoyl]phenyl}ethyl)carbamoyl][1,1′-biphenyl]-4-yl}-2,3,9-trimethyl-6H-thieno[3,2-f][1,2,4]triazolo[4,3-a][1,4]diazepin-6-yl]acetate] | 0.3 nM | 0.49 nM
5 | COC(=O)C[C@@H]1N=C(c2ccc(-c3ccc(C(=O)NCc4ccc(S(=O)(=O)Nc5ccc(C)c6c(C#N)c[nH]c56)cc4)c(OC)c3)cc2)c2c(sc(C)c2C)-n2c(C)nnc21 [Example 52, methyl [(6S)-4-{4′-[({4-[(3-cyano-4-methyl-1H-indol-7-yl)sulfamoyl]phenyl}methyl)carbamoyl]-3′-methoxy[1,1′-biphenyl]-4-yl}-2,3,9-trimethyl-6H-thieno[3,2-f][1,2,4]triazolo[4,3-a][1,4]diazepin-6-yl]acetate] | 0.3 nM | 0.55 nM
6 | COC(=O)C[C@@H]1N=C(c2ccc(-c3ccc(C(=O)NCc4ccc(S(=O)(=O)Nc5ccc(C)c6c(C#N)c[nH]c56)cc4)cc3)cc2)c2c(sc(CO)c2C)-n2c(C)nnc21 [Example 55, methyl [(6S)-4-{4′-[({4-[(3-cyano-4-methyl-1H-indol-7-yl)sulfamoyl]phenyl}methyl)carbamoyl][1,1′-biphenyl]-4-yl}-2-(hydroxymethyl)-3,9-dimethyl-6H-thieno[3,2-f][1,2,4]triazolo[4,3-a][1,4]diazepin-6-yl]acetate] | 1.4 nM | 3 nM
7 | COC(=O)C[C@@H]1N=C(c2ccc(-c3ccc4cc(C(=O)NCc5ccc(S(=O)(=O)Nc6ccc(C)c7c(C#N)c[nH]c67)cc5)sc4c3)cc2)c2c(sc(C)c2C)-n2c(C)nnc21 [Example 62, methyl [(6S)-4-(4-{2-[({4-[(3-cyano-4-methyl-1H-indol-7-yl)sulfamoyl]phenyl}methyl)carbamoyl]-1-benzothiophen-6-yl}phenyl)-2,3,9-trimethyl-6H-thieno[3,2-f][1,2,4]triazolo[4,3-a][1,4]diazepin-6-yl]acetate] | 0.64 nM | 0.97 nM

These reach a lower DC50 [2]. Values come first.

Row | DC50 [2] | SMILES | IC50 [1]
8 | 0.19 nM | COC(=O)C[C@@H]1N=C(c2ccc(-c3ccc(C(=O)NCCc4ccc(S(=O)(=O)Nc5ccc(C)c6c(C#N)c[nH]c56)cc4)c(F)c3)cc2)c2c(sc(C)c2C)-n2c(C)nnc21 [Example 40, methyl [(6S)-4-{4′-[(2-{4-[(3-cyano-4-methyl-1H-indol-7-yl)sulfamoyl]phenyl}ethyl)carbamoyl]-3′-fluoro[1,1′-biphenyl]-4-yl}-2,3,9-trimethyl-6H-thieno[3,2-f][1,2,4]triazolo[4,3-a][1,4]diazepin-6-yl]acetate] | 0.42 nM
9 | 0.19 nM | COC(=O)C[C@@H]1N=C(c2ccc(-c3ccc(C(=O)NCc4ccc(S(=O)(=O)Nc5ccc(C)c6c(C#N)c[nH]c56)cc4)cc3F)cc2)c2c(sc(C)c2C)-n2c(C)nnc21 [Example 45, methyl [(6S)-4-{4′-[({4-[(3-cyano-4-methyl-1H-indol-7-yl)sulfamoyl]phenyl}methyl)carbamoyl]-2′-fluoro[1,1′-biphenyl]-4-yl}-2,3,9-trimethyl-6H-thieno[3,2-f][1,2,4]triazolo[4,3-a][1,4]diazepin-6-yl]acetate] | 0.22 nM
10 | 0.13 nM | COC(=O)C[C@@H]1N=C(c2ccc(-c3ccc(C(=O)NCc4ccc(S(=O)(=O)Nc5ccc(C)c6c(C#N)c[nH]c56)cc4)c(C)c3)cc2)c2c(sc(C)c2C)-n2c(C)nnc21 [Example 50, methyl [(6S)-4-{4′-[({4-[(3-cyano-4-methyl-1H-indol-7-yl)sulfamoyl]phenyl}methyl)carbamoyl]-3′-methyl[1,1′-biphenyl]-4-yl}-2,3,9-trimethyl-6H-thieno[3,2-f][1,2,4]triazolo[4,3-a][1,4]diazepin-6-yl]acetate] | 0.23 nM
11 | 0.22 nM | COC(=O)C[C@@H]1N=C(c2ccc(-c3ccc(C(=O)NCc4ccc(S(=O)(=O)Nc5ccc(C)c6c(C#N)c[nH]c56)cc4)s3)cc2)c2c(sc(C)c2C)-n2c(C)nnc21 [Example 59, methyl [(6S)-4-(4-{5-[({4-[(3-cyano-4-methyl-1H-indol-7-yl)sulfamoyl]phenyl}methyl)carbamoyl]thiophen-2-yl}phenyl)-2,3,9-trimethyl-6H-thieno[3,2-f][1,2,4]triazolo[4,3-a][1,4]diazepin-6-yl]acetate] | 0.23 nM
12 | 0.23 nM | Cc1sc2c(c1C)C(c1ccc(-c3ccc(C(=O)NCc4ccc(S(=O)(=O)Nc5ccc(C)c6c(C#N)c[nH]c56)cc4)cc3)cc1)=N[C@@H](CC(=O)OC(C)(C)C)c1nnc(C)n1-2 [Example 63, t-butyl [(6S)-4-{4′-[({4-[(3-cyano-4-methyl-1H-indol-7-yl)sulfamoyl]phenyl}methyl)carbamoyl][1,1′-biphenyl]-4-yl}-2,3,9-trimethyl-6H-thieno[3,2-f][1,2,4]triazolo[4,3-a][1,4]diazepin-6-yl]acetate] | 0.45 nM
13 | 0.13 nM | Cc1sc2c(c1C)C(c1ccc(-c3ccc(C(=O)NCCc4ccc(S(=O)(=O)Nc5ccc(C)c6c(C#N)c[nH]c56)cc4)cc3)cc1)=N[C@@H](CC(=O)OC(C)(C)C)c1nnc(C)n1-2 [Example 64, t-butyl [(6S)-4-{4′-[(2-{4-[(3-cyano-4-methyl-1H-indol-7-yl)sulfamoyl]phenyl}ethyl)carbamoyl][1,1′-biphenyl]-4-yl}-2,3,9-trimethyl-6H-thieno[3,2-f][1,2,4]triazolo[4,3-a][1,4]diazepin-6-yl]acetate] | 0.25 nM
